Assay results from patent US10166279B2, “Vaccine” (Bergen Teknologioverføring AS, priority 2013, dated 2019).
Peptide text beside a SMILES is read from it.

The compounds below were run against T1, GC-C receptor (Homo sapiens, UniProt P25092) (assay: GC-C receptor T-84 cell assay (toxicity, cGMP levels) of culture filtrates). Conditions: T84 cell assay, culture filtrate.
T1 construct: endogenous in cells; host or cells: T-84 cells
Type: cell-based
Experimental: T-84 cells were seeded and cultured in each well of a 24 well plate. After removing the Dulbecco's modified Eagle's medium (DMEM:F12 (1:1) Lonza Walkersville, Inc.), cells were washed 3 times with 0.5 mL DMEM. Cells were incubated with 0.25 mL DMEM containing 1 mM 3-isobutyl-1-methylxanthine (IBMX) for 10 min at 37° C. 0.1 mL of sample (culture filtrate) was added to each well and incubated for 60 min at 37° C. Following incubation, the reaction medium was aspirated, and the cells were lysed with […] HCl at room temperature for 20 min. The lysates were centrifuged at top speed for 10 min and the cGMP levels were measured in control- and agonist-stimulated cells with a direct cGMP enzyme immunoassay kit (Enzo Life Sciences, Inc.) according to the manufacturer's instructions.
The culture filtrate of each mutant was added to the T-84 cells in duplicate, and a serial dilution of culture filtrates with recombinantly expressed native ST was used to generate a standard curve.
Toxicity measured in culture filtrates is a product of intrinsic toxicity (toxicity per mol) and the concentration of the ST mutant. The same is true for antigenicity. […] Since we have no method for accurately measuring ST (mutant) concentrations in culture filtrates, we are not able to directly measure intrinsic toxicities and antigenicities for the ST mutants.
To circumvent this problem we measure toxicity and antigenicity for the ST mutants relative to native ST. This allows us to describe changes in toxicity and antigenicity in mutant culture filtrates. Next, we divide the change in antigenicity by the change in toxicity for each mutant. If the same culture filtrate has been used to measure toxicity and antigenicity this allows us to eliminate the of the concentration.

T1 sequence (P25092 24-1073): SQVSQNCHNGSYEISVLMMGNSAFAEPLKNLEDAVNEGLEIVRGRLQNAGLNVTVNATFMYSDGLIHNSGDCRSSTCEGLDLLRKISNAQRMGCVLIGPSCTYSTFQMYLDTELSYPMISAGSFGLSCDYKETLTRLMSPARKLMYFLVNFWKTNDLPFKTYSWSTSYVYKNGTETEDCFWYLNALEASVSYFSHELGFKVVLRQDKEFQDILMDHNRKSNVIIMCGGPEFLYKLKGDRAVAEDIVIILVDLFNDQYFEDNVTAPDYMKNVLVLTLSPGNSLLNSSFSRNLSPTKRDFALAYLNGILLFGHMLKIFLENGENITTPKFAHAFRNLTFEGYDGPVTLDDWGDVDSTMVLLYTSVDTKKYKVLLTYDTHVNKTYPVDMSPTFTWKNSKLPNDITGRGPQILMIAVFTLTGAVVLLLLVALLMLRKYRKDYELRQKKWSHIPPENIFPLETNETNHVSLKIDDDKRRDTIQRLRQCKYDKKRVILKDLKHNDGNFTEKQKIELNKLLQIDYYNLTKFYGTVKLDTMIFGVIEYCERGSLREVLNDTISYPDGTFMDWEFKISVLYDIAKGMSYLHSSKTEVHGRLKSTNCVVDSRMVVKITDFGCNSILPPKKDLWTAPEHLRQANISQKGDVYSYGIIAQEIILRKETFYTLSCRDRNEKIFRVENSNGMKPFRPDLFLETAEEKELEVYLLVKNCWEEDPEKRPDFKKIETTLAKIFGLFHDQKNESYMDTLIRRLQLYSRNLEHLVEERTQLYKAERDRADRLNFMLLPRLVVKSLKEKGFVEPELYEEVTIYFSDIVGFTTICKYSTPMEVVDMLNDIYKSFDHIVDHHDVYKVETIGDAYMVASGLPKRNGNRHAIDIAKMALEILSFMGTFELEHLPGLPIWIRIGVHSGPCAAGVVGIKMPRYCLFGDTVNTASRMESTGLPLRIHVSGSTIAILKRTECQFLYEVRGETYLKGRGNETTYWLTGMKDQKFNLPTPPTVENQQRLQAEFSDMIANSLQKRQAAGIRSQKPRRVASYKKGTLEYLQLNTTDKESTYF

Structure (SMILES)	toxicity relative to native STh
CC(C)C[C@@H]1NC(=O)[C@H](CCC(=O)O)NC(=O)[C@@H]2CSSC[C@@H]3NC(=O)[C@H](C)NC(=O)[C@@H]4CCCN4C(=O)[C@H]([C@@H](C)O)NC(=O)[C@H](CSSC[C@H](NC(=O)[C@H](Cc4ccc(O)cc4)NC(=O)[C@H](CC(N)=O)NC(=O)[C@H](CO)NC(=O)[C@H](CO)NC(=O)[C@@H](N)CC(N)=O)C(=O)N2)NC(=O)[C@H](CSSC[C@@H](C(=O)N[C@@H](Cc2ccc(O)cc2)C(=O)O)NC(=O)CNC(=O)[C@H]([C@@H](C)O)NC3=O)NC1=O [Mutant N12T] (HELM PEPTIDE1{N.S.S.N.Y.C.C.E.L.C.C.T.P.A.C.T.G.C.Y}$PEPTIDE1,PEPTIDE1,6:R3-11:R3|PEPTIDE1,PEPTIDE1,7:R3-15:R3|PEPTIDE1,PEPTIDE1,10:R3-18:R3$$$V2.0)	0.03
CC(C)C[C@@H]1NC(=O)[C@H](CCC(=O)O)NC(=O)[C@@H]2CSSC[C@@H]3NC(=O)[C@H](C)NC(=O)[C@@H]4CCCN4C(=O)[C@H](C(C)C)NC(=O)[C@H](CSSC[C@H](NC(=O)[C@H](Cc4ccc(O)cc4)NC(=O)[C@H](CC(N)=O)NC(=O)[C@H](CO)NC(=O)[C@H](CO)NC(=O)[C@@H](N)CC(N)=O)C(=O)N2)NC(=O)[C@H](CSSC[C@@H](C(=O)N[C@@H](Cc2ccc(O)cc2)C(=O)O)NC(=O)CNC(=O)[C@H]([C@@H](C)O)NC3=O)NC1=O [Mutant N12V] (HELM PEPTIDE1{N.S.S.N.Y.C.C.E.L.C.C.V.P.A.C.T.G.C.Y}$PEPTIDE1,PEPTIDE1,6:R3-11:R3|PEPTIDE1,PEPTIDE1,7:R3-15:R3|PEPTIDE1,PEPTIDE1,10:R3-18:R3$$$V2.0)	0.01

Same assay, conditions: relative to native STh; culture filtrate; ^2 = no detectable toxicity, set to detection limit 0.0014

Structure (SMILES)	Toxicity
CSCC[C@H](N)C(=O)N[C@@H](CO)C(=O)N[C@@H](CO)C(=O)N[C@@H](CC(N)=O)C(=O)N[C@@H](Cc1ccc(O)cc1)C(=O)N[C@H]1CSSC[C@@H]2NC(=O)[C@@H]3CSSC[C@@H](C(=O)N[C@@H](Cc4ccc(O)cc4)C(=O)O)NC(=O)CNC(=O)[C@H]([C@@H](C)O)NC(=O)[C@H](CSSC[C@H](NC1=O)C(=O)N[C@@H](CCC(=O)O)C(=O)N[C@@H](CC(C)C)C(=O)N3)NC(=O)[C@H](C)NC(=O)[C@@H]1CCCN1C(=O)[C@H](CC(N)=O)NC2=O [Mutant N01M] (HELM PEPTIDE1{M.S.S.N.Y.C.C.E.L.C.C.N.P.A.C.T.G.C.Y}$PEPTIDE1,PEPTIDE1,6:R3-11:R3|PEPTIDE1,PEPTIDE1,7:R3-15:R3|PEPTIDE1,PEPTIDE1,10:R3-18:R3$$$V2.0)	1.8910
CC(C)C[C@@H]1NC(=O)[C@H](CCC(=O)O)NC(=O)[C@@H]2CSSC[C@@H]3NC(=O)[C@H](C)NC(=O)[C@@H]4CCCN4C(=O)[C@H](CC(N)=O)NC(=O)[C@H](CSSC[C@H](NC(=O)[C@H](Cc4ccc(O)cc4)NC(=O)[C@H](CC(C)C)NC(=O)[C@H](CO)NC(=O)[C@H](CO)NC(=O)[C@@H](N)CC(N)=O)C(=O)N2)NC(=O)[C@H](CSSC[C@@H](C(=O)N[C@@H](Cc2ccc(O)cc2)C(=O)O)NC(=O)CNC(=O)[C@H]([C@@H](C)O)NC3=O)NC1=O [Mutant N04L] (HELM PEPTIDE1{N.S.S.L.Y.C.C.E.L.C.C.N.P.A.C.T.G.C.Y}$PEPTIDE1,PEPTIDE1,6:R3-11:R3|PEPTIDE1,PEPTIDE1,7:R3-15:R3|PEPTIDE1,PEPTIDE1,10:R3-18:R3$$$V2.0)	0.2934
CC(C)C[C@@H]1NC(=O)[C@H](CCC(=O)O)NC(=O)[C@@H]2CSSC[C@@H]3NC(=O)[C@H](C)NC(=O)[C@@H]4CCCN4C(=O)[C@H](CCCCN)NC(=O)[C@H](CSSC[C@H](NC(=O)[C@H](Cc4ccc(O)cc4)NC(=O)[C@H](CC(N)=O)NC(=O)[C@H](CO)NC(=O)[C@H](CO)NC(=O)[C@@H](N)CC(N)=O)C(=O)N2)NC(=O)[C@H](CSSC[C@@H](C(=O)N[C@@H](Cc2ccc(O)cc2)C(=O)O)NC(=O)CNC(=O)[C@H]([C@@H](C)O)NC3=O)NC1=O [Mutant N12K] (HELM PEPTIDE1{N.S.S.N.Y.C.C.E.L.C.C.K.P.A.C.T.G.C.Y}$PEPTIDE1,PEPTIDE1,6:R3-11:R3|PEPTIDE1,PEPTIDE1,7:R3-15:R3|PEPTIDE1,PEPTIDE1,10:R3-18:R3$$$V2.0)	0.5113
CC(C)C[C@@H]1NC(=O)[C@H](CCC(=O)O)NC(=O)[C@@H]2CSSC[C@@H]3NC(=O)[C@H](C)NC(=O)[C@H](C)NC(=O)[C@H](CC(N)=O)NC(=O)[C@H](CSSC[C@H](NC(=O)[C@H](Cc4ccc(O)cc4)NC(=O)[C@H](CC(N)=O)NC(=O)[C@H](CO)NC(=O)[C@H](CO)NC(=O)[C@@H](N)CC(N)=O)C(=O)N2)NC(=O)[C@H](CSSC[C@@H](C(=O)N[C@@H](Cc2ccc(O)cc2)C(=O)O)NC(=O)CNC(=O)[C@H]([C@@H](C)O)NC3=O)NC1=O [Mutant P13A] (HELM PEPTIDE1{N.S.S.N.Y.C.C.E.L.C.C.N.A.A.C.T.G.C.Y}$PEPTIDE1,PEPTIDE1,6:R3-11:R3|PEPTIDE1,PEPTIDE1,7:R3-15:R3|PEPTIDE1,PEPTIDE1,10:R3-18:R3$$$V2.0)	< 0.0014^2
CC(C)C[C@@H]1NC(=O)[C@H](CCC(=O)O)NC(=O)[C@@H]2CSSC[C@@H]3NC(=O)[C@H](C)NC(=O)[C@@H]4CCCN4C(=O)[C@H](CC(N)=O)NC(=O)[C@H](CSSC[C@H](NC(=O)[C@H](Cc4ccc(O)cc4)NC(=O)[C@H](CC(N)=O)NC(=O)[C@H](CO)NC(=O)[C@H](CC(N)=O)NC(=O)[C@@H](N)CC(N)=O)C(=O)N2)NC(=O)[C@H](CSSC[C@@H](C(=O)N[C@@H](Cc2ccc(O)cc2)C(=O)O)NC(=O)CNC(=O)[C@H]([C@@H](C)O)NC3=O)NC1=O [Mutant S02N] (HELM PEPTIDE1{N.N.S.N.Y.C.C.E.L.C.C.N.P.A.C.T.G.C.Y}$PEPTIDE1,PEPTIDE1,6:R3-11:R3|PEPTIDE1,PEPTIDE1,7:R3-15:R3|PEPTIDE1,PEPTIDE1,10:R3-18:R3$$$V2.0)	0.7308
CC(C)C[C@@H]1NC(=O)[C@H](CCC(=O)O)NC(=O)[C@@H]2CSSC[C@@H]3NC(=O)[C@H](C)NC(=O)[C@@H]4CCCN4C(=O)[C@H](CC(N)=O)NC(=O)[C@H](CSSC[C@H](NC(=O)[C@H](Cc4ccc(O)cc4)NC(=O)[C@H](CC(N)=O)NC(=O)[C@H](Cc4ccccc4)NC(=O)[C@H](CO)NC(=O)[C@@H](N)CC(N)=O)C(=O)N2)NC(=O)[C@H](CSSC[C@@H](C(=O)N[C@@H](Cc2ccc(O)cc2)C(=O)O)NC(=O)CNC(=O)[C@H]([C@@H](C)O)NC3=O)NC1=O [Mutant S03F] (HELM PEPTIDE1{N.S.F.N.Y.C.C.E.L.C.C.N.P.A.C.T.G.C.Y}$PEPTIDE1,PEPTIDE1,6:R3-11:R3|PEPTIDE1,PEPTIDE1,7:R3-15:R3|PEPTIDE1,PEPTIDE1,10:R3-18:R3$$$V2.0)	0.3871
CC(C)C[C@@H]1NC(=O)[C@H](CCC(=O)O)NC(=O)[C@@H]2CSSC[C@@H]3NC(=O)[C@H](C)NC(=O)[C@@H]4CCCN4C(=O)[C@H](CC(N)=O)NC(=O)[C@H](CSSC[C@H](NC(=O)[C@H](Cc4ccc(O)cc4)NC(=O)[C@H](CC(N)=O)NC(=O)[C@H](CO)NC(=O)[C@H](CO)NC(=O)[C@@H](N)CC(N)=O)C(=O)N2)NC(=O)[C@H](CSSC[C@@H](C(=O)N[C@@H](Cc2ccc(O)cc2)C(=O)O)NC(=O)CNC(=O)[C@H](CCCNC(=N)N)NC3=O)NC1=O [Mutant T16R] (HELM PEPTIDE1{N.S.S.N.Y.C.C.E.L.C.C.N.P.A.C.R.G.C.Y}$PEPTIDE1,PEPTIDE1,6:R3-11:R3|PEPTIDE1,PEPTIDE1,7:R3-15:R3|PEPTIDE1,PEPTIDE1,10:R3-18:R3$$$V2.0)	0.0111
